Measurements published in ChEMBL document CHEMBL4346743, “Design and synthesis of biotinylated Hexylselen as a probe to identify KGA allosteric inhibitors by a convenient biomolecular interaction assay” (Bioorg Med Chem Lett, 2019).
The source made the active and inactive calls. The rule behind the calls is not given here.

Key:
[1] = target: T1, Glutaminase kidney isoform, mitochondrial (Homo sapiens, UniProt O94925); test: Allosteric inhibition of human KGA assessed as reduction in glutamate formation using glutamine as substrate pretreated with enzyme for 15 mins followed by substrate addition and measured after 3 hrs by KGA/GDH coupled assay
T1 sequence (O94925 whole entry): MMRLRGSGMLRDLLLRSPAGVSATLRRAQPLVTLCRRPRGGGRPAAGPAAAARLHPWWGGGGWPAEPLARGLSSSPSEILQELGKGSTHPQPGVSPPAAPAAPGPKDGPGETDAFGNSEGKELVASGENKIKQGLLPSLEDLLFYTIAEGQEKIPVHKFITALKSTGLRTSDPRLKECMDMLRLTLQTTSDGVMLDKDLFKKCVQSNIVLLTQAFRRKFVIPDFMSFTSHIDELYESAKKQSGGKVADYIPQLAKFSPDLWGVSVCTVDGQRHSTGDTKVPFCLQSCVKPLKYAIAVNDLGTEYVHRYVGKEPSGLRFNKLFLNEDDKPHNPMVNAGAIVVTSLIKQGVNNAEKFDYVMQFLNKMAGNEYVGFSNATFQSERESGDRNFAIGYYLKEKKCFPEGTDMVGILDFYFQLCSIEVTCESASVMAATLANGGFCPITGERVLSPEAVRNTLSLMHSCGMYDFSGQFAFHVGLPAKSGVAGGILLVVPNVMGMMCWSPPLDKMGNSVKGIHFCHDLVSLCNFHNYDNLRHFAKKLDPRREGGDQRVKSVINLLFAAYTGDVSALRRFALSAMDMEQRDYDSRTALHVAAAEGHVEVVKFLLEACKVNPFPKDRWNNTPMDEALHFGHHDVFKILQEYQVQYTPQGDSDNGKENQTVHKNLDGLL

[2] = target: T1, Glutaminase kidney isoform, mitochondrial; test: Binding affinity to human KGA assessed as dissociation constant
[3] = target: T2, Glutaminase kidney isoform, mitochondrial (Homo sapiens) (UniProt O94925); test: Binding affinity to human KGA assessed as association rate constant at 33 uM
T2 sequence (whole entry): T1 sequence (O94925 whole entry)

[4] = target: T2, Glutaminase kidney isoform, mitochondrial (Homo sapiens); test: Binding affinity to human KGA assessed as dissociation rate constant at 33 uM
[5] = target: T2, Glutaminase kidney isoform, mitochondrial (Homo sapiens); test: Competitive binding affinity to human KGA in presence of BPTES by biolayer interferometry
[6] = target: T2, Glutaminase kidney isoform, mitochondrial (Homo sapiens); test: Competitive binding affinity to human KGA after 1 hr in presence of ebselen by biolayer interferometry

IC50 [1]: 73 nM
Kd [2]: 142 nM
Ka [3]: 1.4 ×10⁴ /Ms
Kdiss [4]: 2 ×10⁻³ /s
Activity [5]: Active
Activity [6]: inactive
SMILES: COc1ccc2[se]n(CCCCCCn3[se]c4ccc(OCCCCC[C@@H]5SC[C@@H]6NC(=O)N[C@@H]65)cc4c3=O)c(=O)c2c1
